Experimental data as given in patent publication US7598072B2 (priority 2003, dated 2009).
Read-outs that look alike come from different tables or passages of the source.

Columns and labels:
[1] = tested on: ASLV; assay type: cell-based, avian sarcoma and leukosis virus; details: 3 mM NH4Cl, data not shown
[2] = tested on: ASLV; details: 30 mM or higher concentrations of NH4Cl; cited from earlier work
[3] = tested on: ASLV-A vector RCASBP(A)-EGFP; assay type: biochemical, avian sarcoma and leukosis virus
[4] = tested on: HIV [EnvA] pseudotyped virus; experiment: HIV [EnvA] cell-free fusion/uncoating reaction, HIV-1 early DNA by real-time PCR; assay type: biochemical; details: 4.5 mM, 200 μg 293 S10 fraction, 6 hour incubation

Compound: Cl.N [NH4Cl, ammonium chloride]
- ASLV fusion and entry into cells [1]: unaffected
- ASLV fusion and entry into cells [2]: effectively blocked

Compound: Nc1ncnc2c1ncn2[C@@H]1O[C@H](CO[P@](=O)(O)O[P@](=O)(O)O[P@@](=O)(O)S)[C@@H](O)[C@H]1O [adenosine 5′-[γ-thio]triphosphate]
- effect on stimulation of ASLV early DNA synthesis in the cell-free system ([3]; 2.5 mM, 150 μg 293 S10 fraction, 6 hour incubation): markedly reduced
- effect on stimulation of HIV-1 early DNA synthesis in the cell-free system [4]: markedly reduced

Compound: apyrase
- effect on amount of ASLV early DNA products ([3]; 10 units/ml apyrase added 30 minutes or later after initiating the cell-free reaction): little or no effect
- effect on amount of ASLV early DNA products ([3]; 10 units/ml apyrase, 150 μg 293 S10 fraction): reduced
